Publication PMC9579148 (European Journal of Medicinal Chemistry, 2022)
Residues, ends and D or L forms follow the SMILES beside them. *: point of attachment. Octanoyl = CCCCCCCC(=O)*; Boc = CC(C)(C)OC(=O)*

Assays:
M^pro = details: octapeptide progenitor, earlier work; cited from earlier work
SARS-CoV-2 M^pro = SARS-CoV-2 M^pro (Severe acute respiratory syndrome coronavirus 2, UniProt P0DTD1); assay type: binding; details: ITC
SARS-CoV-2 = details: read-out: anti-SARS-CoV-2 activity EC50; cited from earlier work
[1] = Stability test in aqueous solution; assay type: physicochemical; details: PBS pH 7.0, 25 °C and 37 °C, 3, 6, 8 and 24 h, HPLC
[2] = tested on: SARS-CoV-2 RG2674 (South African); assay: Antiviral CPE reduction assay in Vero cells, RG2674; assay type: cell-based; details: 100 CCID50, CPE, 5 days

AT1001
enzymatic inhibition activity (partial inhibition) (M^pro): about 30%

CCCCCCCC(=O)NCC(=O)N[C@@H](Cc1ccccc1)C(=O)N[C@H](C=O)Cc1c[nH]cn1 [compound 58, Octanoyl-Gly-Phe-His-CHO] (Octanoyl-Gly-Phe-His-aldehyde)
Stoichiometry (N) (SARS-CoV-2 M^pro): 0.966 ± 0.013 | Cytotoxicity, Cell morphology (MCC) (Vero cells): ≥100 μM

Cc1cc(C(=O)N[C@@H](C)C(=O)N[C@H](C(=O)N[C@@H](CC(C)C)C(=O)N[C@H](/C=C/C(=O)OCc2ccccc2)C[C@@H]2CCNC2=O)C(C)C)no1 [N3, reference compound]
EC50 (SARS-CoV-2): 16.8 ± 1.7 µM

CC(=O)NCC(=O)N[C@@H](Cc1ccccc1)C(=O)N[C@H](C=O)Cc1c[nH]cn1 [compound 4, Ac-Gly-Phe-His-CHO] (Ac-Gly-Phe-His-aldehyde)
Stability in aqueous solution [1]: stable | Stoichiometry (N) (SARS-CoV-2 M^pro): 1.040 ± 0.012 | Antiviral activity (EC50) RG2674 [2]: ineffective | Cytotoxicity, Cell morphology (MCC) (Vero cells): ≥100 μM

CC(C)(C)OC(=O)NCC(=O)N[C@@H](Cc1ccccc1)C(=O)N[C@H](C=O)Cc1c[nH]cn1 [compound 57, Boc-Gly-Phe-His-CHO] (Boc-Gly-Phe-His-aldehyde)
Stoichiometry (N) (SARS-CoV-2 M^pro): 0.991 ± 0.015 | Cytotoxicity, Cell morphology (MCC) (Vero cells): ≥100 μM

Ac-GGVLVQPG-NH2 [peptide 2]
EC50 (SARS-CoV-2): 17.6 ± 2.4 µM
